The text below walks through data of patent US20200016059A1, “PERSONAL CARE COMPOSITIONS WITH GLUTATHIONE PRECURSOR COMPRISING NICOTINAMIDE AND AMINO ACIDS” (Conopco, Inc., d/ba UNILEVER, priority 2016, published 2020).

Type in all cases: cell-based
For data set [1], the system named is Human Keratinocytes. As to the kind of experiment: Cell viability assay (CCK-8). Particulars: for % Protection (improvement vs. vehicle control + menadione): cell viability. The method, then: The medium was refreshed every other day. Subsequently, cells were trypsinized at 90% confluency and seeded at a density of 2×10^4 per well into 96-well transparent tissue culture plates. On the second day after seeding, cell medium was replaced with treatments as described above in ROS assay section. After 18 hours, […] (CCK-8) reagent (Dojindo, Kumamoto, Japan) was diluted 1:10 in HBSS and incubated with cells for 4 h at 37° C. in a humidified incubator. Optical absorption at 450 nm was measured using a Tecan Safire2 plate reader. […] Where indicated, percent protection was calculated as a comparison to menadione alone treatment, using the measured relative absorbance units in the following equation: […]

Data set [2] concerns Aged Human Keratinocytes. In words: Glutathione assay (total glutathione, GSH-GSSG Glo) after menadione challenge. As to conditions: for % Protection (improvement vs. vehicle control + menadione): glutathione; for Mean (uM glutathione): Table 1A. The source says: The medium was refreshed every 2-3 days. Subsequently, cells were trypsinized at 90% confluency and seeded at a density of 1×10^4 per well into 96-well plates with white wall and clear bottom. […] The concentration of all amino acids constituting the GAP mixture used in this assay are designated in the data tables, and fully described in the abbreviations list below. After one or two hours of pre-treatment with GAP (and additional test reagents where described), keratinocytes were then challenged with 25 uM menadione (Sigma-Aldrich), a known inducer of oxidative stress. […] In summary, after cell treatment, the media was removed and replaced with a cell lysis reagent for 5 minutes at 20-25° C.; note, all remaining steps were also conducted at 20-25° C. Next, a luciferase generation reagent was added to each well and incubated for 30 minutes. Following this step, a luciferin detection reagent was added to each well and plates were incubated for 15 minutes. Finally, plates were then read for luminescence in a FlexStation 3 plate reader (Molecular Devices). Total glutathione levels were calculated after interpolation of glutathione concentrations from a standard curve. Experimental conditions were typically conducted in at least triplicate determinations. Statistical significance was calculated using 1-way ANOVA. Percent protection was calculated by using the calculated glutathione levels from each experiment in the following equation: […]

Data set [3] has as its system Human Keratinocytes. As to the kind of experiment: Reactive oxygen species (ROS) assay, CellROX green. As to conditions: for % Protection (improvement vs. vehicle control + menadione): ROS. The method, then:
The medium was refreshed every other day. Subsequently, cells were trypsinized at 90% confluency and seeded at a density of 1-2×10^4 per well into 96-well plates with black wall and clear bottom. On the second day after seeding, cell medium was replaced with Hank's Balanced Salt Solution (HBSS) with or without menadione (10-25 uM), GAP (typically at 49 uM pyroglutamic acid, 60 uM cystine, 194 uM glycine), GAP vehicle (0.2 mM NaOH, pH 7.5), above-described additional test reagents, combinations of GAP with additional test reagents, or L-cystine esters alone and incubated for additional 18 hours. For ROS detection, CellROX green (Life Tech, Thermo Fisher Scientific, Rockford, USA) reagent was added into each well to a final concentration of 15-25 uM and incubated for additional 2-4 hours at 37° C. in a humidified incubator. The ROS fluorescence was detected using a Tecan microplate reader (Excitation/Emission=490/525). […] Where indicated, percent protection was calculated as a comparison to menadione alone treatment, using the measured relative fluorescent units in the following equation: ROS levels were evaluated together with cell viability because it is possible to get a false negative for ROS if treatment is so toxic that at the time of assay, cells are dead (and there are no longer any detectable ROS). Decrease in ROS levels is meaningful if cells are still viable.

Where [4] appears, read: cystine ester at 20 uM + menadione.
[5] abbreviates: cystine ester at 40 uM + menadione.
[6] abbreviates: cystine ester at 80 uM + menadione.
[7] abbreviates: cystine ester at 160 uM + menadione.
Where [8] appears, read: Table 1A glutathione, test reagent at 0.5 mM, alone or with GAP 10, + 25 uM menadione.
Where [9] appears, read: nicotinamide / nicotinamide riboside / picolinamide at 0.5 mM, alone or with GAP 10, + 25 uM menadione.
The mark [10] stands for this setting: Table 1A glutathione, test reagent at 5 mM, alone or with GAP 10, + 25 uM menadione.
Where [11] appears, read: Table 1A glutathione, test reagent at 10 mM, alone or with GAP 10, + 25 uM menadione.
[12] abbreviates: nicotinamide / picolinamide at 5 mM, alone or with GAP 10, + 25 uM menadione.
The mark [13] stands for this setting: nicotinamide / picolinamide at 10 mM, alone or with GAP 10, + 25 uM menadione.
Where [14] appears, read: Table 1B, vs menadione alone, nicotinamide 10 mM, GAP typically 49/60/194 uM.

Take `CCOC(=O)[C@@H](N)CSSC[C@H](N)C(=O)OCC.Cl.Cl` [DEC, Diethyl L-cystinate dihydrochloride]: the “% Protection (improvement vs. vehicle control + menadione)” value in data set [1] (setting [4]) is 48.9^2%; in data set [1] (setting [5]) it was 72.7^1,2%; in data set [1] (setting [6]) it was 78.3^1,2%; in data set [1] (setting [7]), 65.9^1,2%; in data set [2] (setting [5]) it was 13^1,2%; in data set [2] (setting [6]), 93^1,2%. Moreover, the “% Protection (improvement vs. vehicle control + menadione)” value in data set [3] (setting [4]) was 38.0^1,2%; in data set [3] (setting [5]), 43.6^1,2%; in data set [3] (setting [6]), 37.7^1,2%; in data set [3] (setting [7]), 32.4^1,2%. The “Cell viability (% of vehicle control)” value in data set [1] (setting [4]) is listed as 109.8^2 % of vehicle control; in data set [1] (setting [5]) it was 127.3^1,2 % of vehicle control; in data set [1] (setting [6]), 131.5^1,2 % of vehicle control; in data set [1] (setting [7]), 122.3^1,2 % of vehicle control. Moreover, the figures for the “Mean (μm glutathione)” value in data set [2] (setting [5]) and in data set [2] (setting [6]) were 0.54^1,2 μm and 2.72^1,2 μm, respectively.
Take `NC(=O)c1ccc[n+]([C@@H]2O[C@H](CO)[C@@H](O)[C@H]2O)c1` [Nicotinamide riboside, nicotinamide riboside]: the “% Protection” value in data set [2] (setting [8]) turned out to be 0%. In addition, the “Mean (uM glutathione)” value in data set [2] (setting [9]) came to 0.16 µM.
As for `COC(=O)[C@@H](N)CSSC[C@H](N)C(=O)OC.Cl.Cl` [CDME, L-Cystine dimethyl ester dihydrochloride], the “% Protection (improvement vs. vehicle control + menadione)” value is 30.2^1,2% in data set [1] (setting [4]); 33.4^1,2% in data set [1] (setting [5]); 24.6^1,2% in data set [1] (setting [6]); 51.7^1,2% in data set [1] (setting [7]); 31^1,2% in data set [2] (setting [6]); 18.2^2% in data set [3] (setting [4]). Moreover, the “% Protection (improvement vs. vehicle control + menadione)” value in data set [3] (setting [5]) was 15.5^1,2%; in data set [3] (setting [6]) it was 13.3^1,2%; in data set [3] (setting [7]), 25.7^2%. Moreover, the “Cell viability (% of vehicle control)” value in data set [1] (setting [4]) is listed as 90.9^1,2 % of vehicle control; in data set [1] (setting [5]), 93.1^1,2 % of vehicle control; in data set [1] (setting [6]), 87.0^1,2 % of vehicle control; in data set [1] (setting [7]), 105.9^1,2 % of vehicle control. For the same compound, the “Mean (μm glutathione)” value in data set [2] (setting [6]) is reported as 1.09^1,2 μm.
With `NC(=O)c1ccccn1` [Picolinamide, picolinamide], the figures for the “% Protection” value in data set [2] (setting [8]), in data set [2] (setting [10]) and in data set [2] (setting [11]) were 2%, 0% and 0%, respectively. In addition, the “Mean (uM glutathione)” value was determined as 0.23 µM in data set [2] (setting [9]), 0.18 µM in data set [2] (setting [12]) and 0.16 µM in data set [2] (setting [13]).
With `CC(C)(C)OC(=O)[C@@H](N)CSSC[C@H](N)C(=O)OC(C)(C)C.Cl.Cl` [DTBC, Ditert-butyl L-cystinate dihydrochloride], the “% Protection (improvement vs. vehicle control + menadione)” value is reported as 6.0% in data set [1] (setting [4]); 3.0% in data set [1] (setting [5]); −0.1% in data set [1] (setting [6]); 41.3^2% in data set [1] (setting [7]); 0^1% in data set [2] (setting [5]); 1^1% in data set [2] (setting [6]). Further, the “% Protection (improvement vs. vehicle control + menadione)” value in data set [3] (setting [4]) was 2.2%; in data set [3] (setting [5]), 13.8^1,2%; in data set [3] (setting [6]), 28.4^1,2%; in data set [3] (setting [7]), 41.1^1,2%. For the same compound, the “Cell viability (% of vehicle control)” value is recorded as 78.1^1 % of vehicle control in data set [1] (setting [4]), 75.9^1 % of vehicle control in data set [1] (setting [5]), 73.6^1 % of vehicle control in data set [1] (setting [6]) and 104.2^2 % of vehicle control in data set [1] (setting [7]). The “Mean (μm glutathione)” value in data set [2] (setting [5]) was 0.17^1 μm; in data set [2] (setting [6]), 0.19^1 μm.
In the case of `NC(=O)c1cccnc1` [Nicotinamide], the “cell viability (% of control)” value in data set [1] (Table 1B, + menadione, 18 h, nicotinamide 10 mM, GAP typically 49/60/194 uM) is reported as 92.90^3 % of control. Also, in data set [1] (setting [14]), the “% Protection (cell viability)” value was 15.41^3%. Besides, the “% Protection” value in data set [2] (setting [8]) is listed as 0%; in data set [2] (setting [10]) it was 0%; in data set [2] (setting [11]), 1%; in data set [2] (Table 2A glutathione, nicotinamide at 5 mM, alone or with amino acids, + menadione) it was 3^1%. For the same compound, the “Mean (uM glutathione)” value was 0.17 µM in data set [2] (setting [9]), 0.14 µM in data set [2] (setting [12]) and 0.20 µM in data set [2] (setting [13]). For the same compound, the “Mean (Glutathione Synthesis)” value in data set [2] (Table 2A, nicotinamide at 5 mM, alone or with amino acids, + menadione) is listed as 0.13^1. The “ROS production (% of control)” value in data set [3] (Table 1B, + menadione, 18 h, nicotinamide 10 mM, GAP typically 49 uM pyroglutamic acid, 60 uM cystine, 194 uM glycine) is given as 231.00^3 % of control. Moreover, in data set [3] (setting [14]), the “% Protection (ROS)” value was 17.70^3%.
